Legend:
Format in all cases: binding
[1] = system: human monoclonal antibody CR57
[2] = system: human monoclonal antibody CRJA
[3] = system: human monoclonal antibody CRJA; remark: listed apart in the source
[4] = system: human monoclonal antibody CRJB
[5] = system: human monoclonal antibody CRJB; remark: listed apart in the source
[6] = system: human monoclonal antibody CR57; remark: listed apart in the source

| Sequence | Binding of CR57 (10 μg/ml) to looped/cyclic peptide (PEPSCAN-ELISA) [1] | Binding of CRJA (10 μg/ml) to looped/cyclic peptide (PEPSCAN-ELISA) [2] | Binding of CRJA to linear peptide (PEPSCAN-ELISA signal) [3] | Binding of CRJB (10 μg/ml) to looped/cyclic peptide (PEPSCAN-ELISA) [4] | Binding of CRJB to linear peptide (PEPSCAN-ELISA signal) [5] | Binding of CR57 to linear peptide (PEPSCAN-ELISA signal) [6] | Binding of CR57 (10 μg/ml) to looped/cyclic peptide (PEPSCAN-ELISA signal) [1] | Binding of CRJA (10 μg/ml) to looped/cyclic peptide (PEPSCAN-ELISA signal) [2] | Binding of CRJB (10 μg/ml) to looped/cyclic peptide (PEPSCAN-ELISA signal) [4] | binding of antibody CRJA to looped/cyclic peptide (PEPSCAN OD) [2] | binding of antibody CR57 to linear peptide (PEPSCAN OD) [6] |
| --- | --- | --- | --- | --- | --- | --- | --- | --- | --- | --- | --- |
| RRLSHLRKLVPGFGK | 111 | 96 | 85 | 88 | 143 | 92 | – | – | – | – | – |
| RSDEIEHLVVEELVR | 136 | 107 | 93 | 93 | 138 | 100 | – | – | – | – | – |
| RSLHSRVFPSGKCSG | – | – | 125 | – | 141 | 87 | 102 | 123 | 93 | – | – |
| RTVKTTKESLVIISP | – | – | 103 | – | 120 | 82 | 88 | 88 | 69 | – | – |
| RTWNEILPSKGCLRV | 107 | 102 | 97 | 93 | 127 | 120 | – | – | – | – | – |
| RVFPSGKCSGVAVSS | – | – | 58 | – | 110 | 69 | 75 | 43 | 89 | – | – |
| RVGGRCHPHVNGVFF | 107 | 117 | 93 | 104 | 143 | 86 | – | – | – | – | – |
| RWLRTVKTTKESLVI | – | – | 72 | – | 110 | 40 | 77 | 71 | 75 | – | – |
| RYEESLHNPYPDYRW | – | – | 96 | – | 112 | 69 | 98 | 91 | 71 | – | – |
| SCDIFTNSRGKRASK | – | – | 89 | – | 111 | 44 | 1 | 57 | 79 | – | – |
| SCPNNLVVEDEGCTN | – | – | 88 | – | 114 | 83 | 82 | 85 | 69 | – | – |
| SDEIEHLVVEELVRK | 96 | 99 | 97 | 85 | 117 | 101 | – | – | – | – | – |
| SETCGFVDERGLYKS | 58 | 56 | 71 | 78 | 116 | 33 | – | – | – | – | – |
| SFRRLSHLRKLVPGF | 143 | 320 | 75 | 87 | 110 | 92 | – | – | – | clearly bound | – |
| SGFSYMELKVGYILA | – | – | 105 | – | 132 | 79 | 74 | 69 | 83 | – | – |
| SGKCSGVAVSSTYCS | – | – | 65 | – | 121 | 64 | 77 | 85 | 57 | – | – |
| SGVAVSSTYCSTNHD | – | – | 84 | – | 110 | 79 | 79 | 90 | 55 | – | – |
| SHLRKLVPGFGKAYT | 143 | 160 | 118 | 103 | 132 | 113 | – | – | – | – | – |
| SIMTTKSVSFRRLSH | 69 | 72 | 92 | 25 | 130 | 54 | – | – | – | – | – |
| SKGCLRVGGRCHPHV | 79 | 71 | 87 | 87 | 121 | 72 | – | – | – | – | – |
| SKGSETCGFVDERGL | 104 | 99 | 104 | 77 | 102 | 92 | – | – | – | – | – |
| SLHNPYPDYRWLRTV | – | – | 87 | – | 111 | 78 | 104 | 99 | 90 | – | – |
| SLHSRVFPSGKCSGV | – | – | 96 | – | 111 | 69 | 115 | 97 | 86 | – | – |
| SLKGACKLKLCGVLG | 129 | 106 | 99 | 79 | 111 | 200 | – | – | – | – | bound |
| SLLQQHMELLESSVI | 113 | 101 | 108 | 85 | 163 | 124 | – | – | – | – | – |
| SLVIISPSVADLDPY | – | – | 88 | – | 105 | 68 | 98 | 87 | 85 | – | – |
| SNETKWCPPDQLVNL | 129 | 102 | 94 | 93 | 129 | 99 | – | – | – | – | – |
| SPIDIHHLSCPNNLV | – | – | 100 | – | 85 | 74 | 94 | 92 | 72 | – | – |
| SPSVADLDPYDRSLH | – | – | 72 | – | 114 | 59 | 76 | 51 | 63 | – | – |

From US20060263802A1 (priority 2003, published 2006)
